Results taken from patent US7741354B2, “Inhibitors of glutaminyl cyclase” (Probiodrug AG, priority 2006, dated 2010).
Where two headings read alike, the source gives them in different places.

Target: hQC (Homo sapiens, UniProt Q16769)
Assay: Fluorometric (fluorescent) assay of hQC inhibition, IC50
Format: biochemical
Protocol: All compounds were immediately tested regarding their activity as hQC inhibitors.
The purity of the compounds was determined by HPLC-MS. The IC50 value against hQC was measured using the fluorescent assay.
All measurements were performed with a BioAssay Reader HTS-7000Plus for microplates (Perkin Elmer) at 30° C. QC activity was evaluated fluorometrically using H-Gln-βNA. The samples consisted of 0.2 mM fluorogenic substrate, 0.25 U pyroglutamyl aminopeptidase (Unizyme, Horsholm, Denmark) in 0.2 M Tris/HCl, pH 8.0 containing 20 mM EDTA and an appropriately diluted aliquot of QC in a final volume of 250 μl. Excitation/emission wavelengths were 320/410 nm. The assay reactions were initiated by addition of glutaminyl cyclase. QC activity was determined from a standard curve of β-naphthylamine under assay conditions. One unit is defined as the amount of QC catalyzing the formation of 1 μmol pGlu-βNA from H-Gln-βNA per minute under the described conditions.
In a second fluorometric assay, QC was activity determined using H-Gln-AMC as substrate. Reactions were carried out at 30° C. utilizing the NOVOStar reader for microplates (BMG labtechnologies). The samples consisted of varying concentrations of the fluorogenic substrate, 0.1 U pyroglutamyl aminopeptidase (Qiagen) in 0.05 M Tris/HCl, pH 8.0 containing 5 mM EDTA and an appropriately diluted aliquot of QC in a final volume of 250 μl. Excitation/emission wavelengths were 380/460 nm. The assay reactions were initiated by addition of glutaminyl cyclase. QC activity was determined from a standard curve of 7-amino-4-methylcoumarin under assay conditions. The kinetic data were evaluated using GraFit sofware.
For inhibitor testing, the sample composition was the same as described above, except of the putative inhibitory compound added. For a rapid test of QC-inhibition, samples contained 4 mM of the respective inhibitor and a substrate concentration at 1 KM. For detailed investigations of the inhibition and determination of Ki-values, influence of the inhibitor on the auxiliary enzymes was investigated first. […] The inhibitory constant was evaluated by fitting the set of progress curves to the general equation for competitive inhibition using GraFit software.

[1] = purified compound from preparative synthesis, fluorescent assay, read-out: IC50 hQC

Sequence of hQC (Q16769 29-361): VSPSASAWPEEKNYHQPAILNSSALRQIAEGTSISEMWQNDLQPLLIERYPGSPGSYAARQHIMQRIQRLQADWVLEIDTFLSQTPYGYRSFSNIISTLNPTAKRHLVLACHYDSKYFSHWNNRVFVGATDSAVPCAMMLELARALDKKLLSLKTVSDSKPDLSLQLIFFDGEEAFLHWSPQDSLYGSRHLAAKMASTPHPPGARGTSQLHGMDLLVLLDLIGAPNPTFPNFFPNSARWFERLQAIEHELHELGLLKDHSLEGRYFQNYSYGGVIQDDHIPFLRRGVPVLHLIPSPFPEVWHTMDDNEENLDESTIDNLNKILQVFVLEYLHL

SMILES	IC50 (read-out: IC50)	IC50 [1]
Cc1ccc(O)c(C(NCCCn2ccnc2)c2nnnn2Cc2ccc(Cl)cc2)c1 (stereo not drawn) [Compound 3, 2-[[1-(4-Chloro-benzyl)-1H-tetrazol-5-yl]-(3-imidazol-1-yl-propylamino)-methyl]-4-methyl-phenol]	400 nM	584 nM
Clc1ccc(Cn2nnnc2C(NCCCn2ccnc2)c2ccc3[nH]ccc3c2)cc1 (stereo not drawn) [Compound 6, [[1-(4-Chloro-benzyl)-1H-tetrazol-5-yl]-(1H-indol-5-yl)-methyl]-(3-imidazol-1-yl-propyl)-amine]	400 nM	450 nM
Clc1ccc(Cn2nnnc2C(NCCCn2ccnc2)c2ccc(Cl)c(Cl)c2)cc1 (stereo not drawn) [compound 1, [[1-(4-Chloro-benzyl)-1H-tetrazol-5-yl]-(3,4-dichloro-phenyl)-methyl]-(3-imidazol-1-yl-propyl)-amine]	2200 nM	
Oc1cccc2ccc(C(NCCCn3ccnc3)c3nnnn3Cc3ccc(Cl)cc3)nc12 (stereo not drawn) [compound 4, 2-[[1-(4-Chloro-benzyl)-1H-tetrazol-5-yl]-(3-imidazol-1-yl-propylamino)-methyl]-quinolin-8-ol]	4900 nM	
N#Cc1cc(C(NCCCn2ccnc2)c2nnnn2Cc2ccc(Cl)cc2)ccc1F (stereo not drawn) [compound 5, 5-[[1-(4-Chloro-benzyl)-1H-tetrazol-5-yl]-(3-imidazol-1-yl-propylamino)-methyl]-2-fluoro-benzonitrile]	6700 nM	
Clc1ccc(Cn2nnnc2C(NCCCn2ccnc2)c2ccc3ccccc3n2)cc1 (stereo not drawn) [compound 7, {[1-(4-Chloro-benzyl)-1H-tetrazol-5-yl]-quinolin-2-yl-methyl}-(3-imidazol-1-yl-propyl)-amine]	1300 nM	

Continued, values first:

IC50 (read-out: IC50)	IC50 [1]	SMILES
6700 nM		CC(C)(C)n1nnnc1C(NCCCn1ccnc1)[C@@H]1CCC=CO1 (stereo in doubt) [compound 61, [(S)-(1-tert-Butyl-1H-tetrazol-5-yl)-3,4-dihydro-2H-pyran-2-yl-methyl]-(3-imidazol-1-yl-propyl)-amine]
400 nM	3470 nM	C1=COC(C(NCCCn2ccnc2)c2nnnn2C2CCCC2)CC1 (stereo not drawn) [Compound 28, [(1-Cyclopentyl-1H-tetrazol-5-yl)-(3,4-dihydro-2H-pyran-2-yl)-methyl]-(3-imidazol-1-yl-propyl)-amine]
400 nM	2880 nM	CN(C)CCn1nnnc1C(NCCCn1ccnc1)C1CCC=CO1 (stereo not drawn) [Compound 38, {(3,4-Dihydro-2H-pyran-2-yl)-[1-(2-dimethylamino-ethyl)-1H-tetrazol-5-yl]-methyl}-(3-imidazol-1-yl-propyl)-amine]
40 nM	2370 nM	Cc1ccc(O)c(C(NCCCn2ccnc2)c2nnnn2CC(C)(C)C)c1 (stereo not drawn) [Compound 63, 2-[[1-(2,2-Dimethyl-propyl)-1H-tetrazol-5-yl]-(3-imidazol-1-yl-propylamino)-methyl]-4-methyl-phenol]
400 nM	1030 nM	CC(C)(C)Cn1nnnc1C(NCCCn1ccnc1)c1ccc2cccc(O)c2n1 (stereo not drawn) [Compound 64, 2-[[1-(2,2-Dimethyl-propyl)-1H-tetrazol-5-yl]-(3-imidazol-1-yl-propylamino)-methyl]-quinolin-8-ol]
400 nM	668 nM	Cc1ccc(O)c(C(NCCCn2ccnc2)c2nnnn2C2CC2)c1 (stereo not drawn) [Compound 68, 2-[(1-Cyclopropyl-1H-tetrazol-5-yl)-(3-imidazol-1-yl-propylamino)-methyl]-4-methyl-phenol]
6700 nM		Cc1ccc(C(NCCCn2ccnc2)c2nnnn2Cc2ccc(Cl)cc2)cc1C (stereo not drawn) [compound 2, [[1-(4-Chloro-benzyl)-1H-tetrazol-5-yl]-(3,4-dimethyl-phenyl)-methyl]-(3-imidazol-1-yl-propyl)-amine]
4000 nM		CC1=CCCC[C@@H]1C(NCCCn1ccnc1)c1nnnn1Cc1ccc(Cl)cc1 (stereo partly drawn) [compound 8, [[1-(4-Chloro-benzyl)-1H-tetrazol-5-yl]-((S)-2-methyl-cyclohex-2-enyl)-methyl]-(3-imidazol-1-yl-propyl)-amine]
